From patent US5151432A, “Substituted amino acid compounds” (Adir et Compagnie, priority 1989, dated 1992)
Values belong to the compound of their own block, whether it stands above or below them.

Assays:
[1] = test system: amnesic scopolamine-treated animals (scopolamine-induced amnesia); experiment: Promnesic effects: one trial-passive avoidance test in rats with scopolamine-induced amnesia; type: in vivo, Male OFA rats (Iffa-Credo); conditions: for % Retention at 300 sec. / Latency of transit: 24 h retention
Excerpt: Male OFA rats (Iffa-Credo) weighting 210-240 g are placed in individual cages under standard environmental conditions. The memory test is a test of one trial-passive avoidance in which experimental amnesia is induced by prior injection of scopolamine.
The apparatus consists of a two-compartment enclosure separated by an automatically closing door.
On the day of conditioning, each animal is placed during 60 seconds in the aversive compartment (white, brightly lit).
Then the door is rapidly open and the rat can freely enter the compartment where it feels secure (black and dark). Transit thereto triggers closing of the door, followed by application to the animal of an unescapable electric shock via the floor of the dark compartment (0.6 mA; 3 seconds).
Memory retention is measured 24 hours later under the same conditions. For this purpose, the latency of transit to the black compartment is measured and the maximum observation time is set at 300 seconds.
The memory enhancing effect of the compounds under investigation is measured in animals receiving scopolamine. These compounds are administered I.P. twice daily during the 3 days preceding the memory test, and then 1 hour before the conditioning test (i.e. 30 minutes before the scopolamine).
The promnesic effects of the compounds increase the transit time relative to the amnesic animals.
The compounds of the present invention are compared to oxiracetam, the nootropic agent most recently proposed in the therapy of memory disorders.

[2] = molecular target: angiotensin I converting enzyme (Homo sapiens, UniProt P12821); experiment: Inhibitory effects on angiotensin I converting enzyme in vitro (conversion of hippurylhistidylleucine to hippuric acid, RYAN method); type: biochemical; conditions: substrate HHL
Procedure: The activity of the converting enzyme is determined in vitro according to the method of RYAN J. W. et al. (Biochem. J., 1977, 167, 501-504), which utilizes the reaction of conversion of hippurylhistidylleucine (HHL) to hippuric acid. The latter is assayed by liquid scintillation after extraction with ethyl acetate. The inhibitory effect of a compound is determined by incubation at different doses in the presence of the substrate and the converting enzyme. The results are expressed as the IC50 of these compounds.

Sequence of angiotensin I converting enzyme (P12821 30-1306): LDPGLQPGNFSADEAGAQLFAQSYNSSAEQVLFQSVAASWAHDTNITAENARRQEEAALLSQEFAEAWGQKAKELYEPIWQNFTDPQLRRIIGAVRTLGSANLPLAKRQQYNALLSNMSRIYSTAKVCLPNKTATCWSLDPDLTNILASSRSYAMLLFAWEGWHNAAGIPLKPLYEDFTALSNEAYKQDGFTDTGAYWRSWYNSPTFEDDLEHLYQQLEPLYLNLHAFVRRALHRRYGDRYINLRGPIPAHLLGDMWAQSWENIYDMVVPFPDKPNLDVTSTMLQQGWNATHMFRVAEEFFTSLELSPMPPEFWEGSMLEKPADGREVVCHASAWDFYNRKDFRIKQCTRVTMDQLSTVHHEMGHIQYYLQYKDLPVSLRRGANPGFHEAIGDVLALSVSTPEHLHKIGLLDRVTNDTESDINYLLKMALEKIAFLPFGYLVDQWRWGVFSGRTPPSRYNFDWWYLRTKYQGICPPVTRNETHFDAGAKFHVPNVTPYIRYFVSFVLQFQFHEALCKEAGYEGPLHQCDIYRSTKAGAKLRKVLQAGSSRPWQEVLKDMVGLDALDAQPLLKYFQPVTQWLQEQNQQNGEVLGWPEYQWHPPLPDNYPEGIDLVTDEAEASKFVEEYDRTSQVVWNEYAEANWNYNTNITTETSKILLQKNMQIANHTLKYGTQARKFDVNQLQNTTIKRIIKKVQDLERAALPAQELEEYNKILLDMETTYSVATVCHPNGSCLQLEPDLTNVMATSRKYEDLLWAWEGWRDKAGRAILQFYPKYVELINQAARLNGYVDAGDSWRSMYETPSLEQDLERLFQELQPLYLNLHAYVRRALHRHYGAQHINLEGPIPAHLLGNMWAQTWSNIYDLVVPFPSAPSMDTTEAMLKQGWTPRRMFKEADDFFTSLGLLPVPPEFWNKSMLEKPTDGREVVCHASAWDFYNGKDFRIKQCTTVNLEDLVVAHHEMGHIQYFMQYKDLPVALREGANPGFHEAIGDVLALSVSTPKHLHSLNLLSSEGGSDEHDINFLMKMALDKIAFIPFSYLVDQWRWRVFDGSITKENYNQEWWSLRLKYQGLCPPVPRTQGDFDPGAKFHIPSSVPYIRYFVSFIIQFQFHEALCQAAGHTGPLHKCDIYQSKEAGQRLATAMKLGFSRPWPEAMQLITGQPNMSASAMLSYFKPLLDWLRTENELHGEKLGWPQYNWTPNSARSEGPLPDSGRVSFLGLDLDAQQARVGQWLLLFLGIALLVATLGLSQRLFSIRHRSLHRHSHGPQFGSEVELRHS

SMILES: CCC[C@H](N[C@@H](C)C(=O)N1C2CCC(CC2)[C@H]1C(N)=O)C(N)=O [Example 3, (3S)-2-{(S)-2-[(S)-1-CARBAMOYLBUTYL-AMINO]PROPIONYL}-3-CARBAMOYL-2-AZABICYCLO[2.2.2]OCTANE]
% Retention at 300 sec. ([1]; 0.003 mg/kg I.P.): 5% | Latency of transit ([1]; 0.003 mg/kg I.P.): 108.2 s | % Retention at 300 sec. ([1]; 0.01 mg/kg I.P.): 10% | Latency of transit ([1]; 0.01 mg/kg I.P.): 119.3 s | % Retention at 300 sec. ([1]; 0.03 mg/kg I.P.): 35% | Latency of transit ([1]; 0.03 mg/kg I.P.): 166.4 s | % Retention at 300 sec. ([1]; 0.1 mg/kg I.P.): 45% | Latency of transit ([1]; 0.1 mg/kg I.P.): 171.6 s | % Retention at 300 sec. ([1]; 0.3 mg/kg I.P.): 40% | Latency of transit ([1]; 0.3 mg/kg I.P.): 182.6 s | % Retention at 300 sec. ([1]; 1 mg/kg I.P.): 20% | Latency of transit ([1]; 1 mg/kg I.P.): 125.2 s | % Retention at 300 sec. ([1]; 3 mg/kg I.P.): 10% | Latency of transit ([1]; 3 mg/kg I.P.): 121.3 s

SMILES: CCCCCCCCOC(=O)[C@@H]1C2CCC(CC2)N1C(=O)[C@H](C)N[C@@H](CCC)C(N)=O [Example 4, (3S)-2-{(S)-2-[(S)-1-CARBAMOYLBUTYLAMINO]PROPIONYL}-2-AZABICYCLO[2.2.2]-OCTANE-3-CARBOXYLIC ACID n-OCTYL ESTER]
% Retention at 300 sec. ([1]; 0.003 mg/kg I.P.): 10% | Latency of transit ([1]; 0.003 mg/kg I.P.): 115.6 s | % Retention at 300 sec. ([1]; 0.01 mg/kg I.P.): 30% | Latency of transit ([1]; 0.01 mg/kg I.P.): 149.3 s | % Retention at 300 sec. ([1]; 0.03 mg/kg I.P.): 50% | Latency of transit ([1]; 0.03 mg/kg I.P.): 205.1 s | % Retention at 300 sec. ([1]; 0.1 mg/kg I.P.): 55% | Latency of transit ([1]; 0.1 mg/kg I.P.): 207.2 s | % Retention at 300 sec. ([1]; 0.3 mg/kg I.P.): 40% | Latency of transit ([1]; 0.3 mg/kg I.P.): 202.1 s | % Retention at 300 sec. ([1]; 1 mg/kg I.P.): 40% | Latency of transit ([1]; 1 mg/kg I.P.): 171.5 s | % Retention at 300 sec. ([1]; 3 mg/kg I.P.): 5% | Latency of transit ([1]; 3 mg/kg I.P.): 106.7 s

IC50 [2]: 50 nM
SMILES: CCC[C@H](N[C@@H](C)C(=O)N1C2CCC(CC2)[C@H]1C(N)=O)C(=O)O [Example 2, (3S)-2-{(S)-2-[(S)-1-CARBOXYBUTYLAMINO]-PROPIONYL}-3-CARBAMOYL-2-AZABICYCLO-[2.2.2]OCTANE]

IC50 [2]: 18 nM
SMILES: NCCCC[C@H](N[C@@H](CCc1ccccc1)C(=O)O)C(=O)N1C2CCC(CC2)[C@H]1C(N)=O [Example 8, (3S)-2-{(S)-2-[(S)-1-CARBOXY-3-PHENYLPROPYLAMINO]-6-AMINOHEXANOYL}-3-CARBAMOYL-2-AZABICYCLO[2.2.2]OCTANE]

SMILES: NC(=O)CN1CC(O)CC1=O (stereo not drawn) [OXIRACETAM, oxiracetam, reference compound]
% Retention at 300 sec. ([1]; 1 mg/kg I.P.): 10% | Latency of transit ([1]; 1 mg/kg I.P.): 97.4 s | % Retention at 300 sec. ([1]; 3 mg/kg I.P.): 10% | Latency of transit ([1]; 3 mg/kg I.P.): 126.5 s | % Retention at 300 sec. ([1]; 10 mg/kg I.P.): 5% | Latency of transit ([1]; 10 mg/kg I.P.): 115.3 s | % Retention at 300 sec. ([1]; 30 mg/kg I.P.): 30% | Latency of transit ([1]; 30 mg/kg I.P.): 150.1 s | % Retention at 300 sec. ([1]; 100 mg/kg I.P.): 40% | Latency of transit ([1]; 100 mg/kg I.P.): 182.5 s | % Retention at 300 sec. ([1]; 300 mg/kg I.P.): 45% | Latency of transit ([1]; 300 mg/kg I.P.): 200.2 s | % Retention at 300 sec. ([1]; 1000 mg/kg I.P.): 30% | Latency of transit ([1]; 1000 mg/kg I.P.): 175.8 s | minimal effective dose ([1]; Rattus norvegicus, ip, I.P., minimal active dose, read-out: dose with protective effect (scopolamine-induced amnesia)): ≥ 30 mg/kg
